Measured values: patent US12673946B2, “Pyrimidin-4(3H)-one derivatives as TRPV4 antagonists” (RaQualia Pharma Inc., priority 2020, dated 2026)

Biological target: T1, human TRPV4 (Homo sapiens, UniProt Q9HBA0)
T1 construct: host or cells: tetracycline-inducible Flp-In T-REx 293 cells
Experiment: Hypotonicity-induced Ca2+ influx (Fluo-4, FDSS)
Type: cell-based
How it was run: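 Flp-In T-REx 293 cells with tetracycline-induced human TRPV4, loaded with Fluo-4 for 60 min at 25 °C. Compound added 5 min before hypotonic mannitol/CaCl2 solution. Ca2+ signal recorded for 4.5 min on FDSS.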

[1] = Flp-In T-REx 293 cells expressing human TRPV4, examples listed under heading 'Human IC50<50 nM'
[2] = Flp-In T-REx 293 cells stably expressing human TRPV4, compounds listed by potency bin (<10 nM Tables 96-1/96-2, <3 nM Table 97)

T1 sequence (Q9HBA0 whole entry): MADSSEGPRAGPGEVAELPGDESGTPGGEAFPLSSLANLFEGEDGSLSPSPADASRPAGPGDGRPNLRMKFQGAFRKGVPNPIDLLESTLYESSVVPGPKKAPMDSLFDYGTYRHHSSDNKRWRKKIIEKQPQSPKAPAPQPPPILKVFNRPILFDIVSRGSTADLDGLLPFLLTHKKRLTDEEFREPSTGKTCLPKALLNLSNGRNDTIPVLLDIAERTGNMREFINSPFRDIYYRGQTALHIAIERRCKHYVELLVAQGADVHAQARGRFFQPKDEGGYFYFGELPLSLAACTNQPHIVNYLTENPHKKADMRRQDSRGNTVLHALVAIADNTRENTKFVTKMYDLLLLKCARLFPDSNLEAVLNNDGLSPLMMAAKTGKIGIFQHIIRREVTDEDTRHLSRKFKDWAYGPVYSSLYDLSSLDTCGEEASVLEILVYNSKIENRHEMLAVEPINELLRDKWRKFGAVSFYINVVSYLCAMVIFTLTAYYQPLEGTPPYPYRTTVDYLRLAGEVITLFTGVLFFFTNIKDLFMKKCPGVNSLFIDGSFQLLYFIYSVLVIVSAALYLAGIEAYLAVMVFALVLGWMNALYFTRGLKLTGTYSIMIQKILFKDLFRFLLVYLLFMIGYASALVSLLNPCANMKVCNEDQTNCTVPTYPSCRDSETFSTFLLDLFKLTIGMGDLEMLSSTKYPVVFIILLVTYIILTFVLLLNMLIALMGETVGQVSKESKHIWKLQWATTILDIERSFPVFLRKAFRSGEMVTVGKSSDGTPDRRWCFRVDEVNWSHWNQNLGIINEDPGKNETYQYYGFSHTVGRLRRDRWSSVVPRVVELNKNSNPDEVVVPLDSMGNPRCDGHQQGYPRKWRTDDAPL

| Compound | IC50 [1] [nM] | IC50 [2] [nM] |
| --- | --- | --- |
| Cc1ccc(-c2cccc(C3(c4nc5c(c(=O)[nH]4)CN(C(=O)[C@H](O)c4cccc(C(F)(F)F)c4)CCC5)CC3)c2)cc1 [42-57] | < 50 | < 10 |
| O=C(C(O)c1cccc(Br)c1)N1CCCc2nc(C3(c4ccccc4)CC3)[nH]c(=O)c2C1 (stereo not shown) [17-55] | < 50 | – |
| CC(C)c1cccc(C2(c3nc4c(c(=O)[nH]3)CN(C(=O)C(O)c3cccc(C(F)(F)F)c3F)CC4)CC2)c1 (stereo not shown) [14-109] | < 50 | < 10 |
| O=C([C@H](O)c1cccc(Cl)c1)N1CCCc2nc(C3(c4cccc(C5CCCC5)c4)CC3)[nH]c(=O)c2C1 [29-3] | < 50 | < 3 |
| O=C([C@H](O)c1cccc(C(F)(F)F)c1)N1CCCc2nc(C3(c4cccc(-c5ccc(CN6CCc7c(Cl)cccc7C6)cc5)c4)CC3)[nH]c(=O)c2C1 [42-96] | < 50 | < 10 |
| CC(C)(C)c1cccc(C(O)C(=O)N2CCCc3nc(C4(c5cccc(Cl)c5)CC4)[nH]c(=O)c3C2)c1 (stereo not shown) [17-18] | < 50 | < 10 |
| O=C([C@H](O)c1cccc(C(F)(F)F)c1)N1CCCc2nc(C3(c4cccc(-c5cnn(C6CC6)c5)c4)CC3)[nH]c(=O)c2C1 [42-6] | < 50 | < 3 |
| N#Cc1cc(C#N)cc(-c2cccc(C3(c4nc5c(c(=O)[nH]4)CN(C(=O)[C@H](O)c4cccc(C(F)(F)F)c4)CCC5)CC3)c2)c1 [42-71] | < 50 | < 10 |
| O=C([C@H](O)c1cccc(Cl)c1)N1CCc2nc(C3(c4cccc(Br)c4)CC3)[nH]c(=O)c2C1 [14-26] | < 50 | – |
| O=C(C(O)c1cccc(S(F)(F)(F)(F)F)c1)N1CCCc2nc(C3(c4cccc(Cl)c4)CC3)[nH]c(=O)c2C1 (stereo not shown) [17-27] | < 50 | < 10 |
| O=C([C@H](O)c1cccc(C(F)(F)F)c1)N1CCCc2nc(C3(c4cc(CCC5CC5)cs4)CC3)[nH]c(=O)c2C1 [30-8] | < 50 | < 10 |
| N#Cc1cc(Cl)cc(-c2cccc(CC(=O)N3CCCc4nc(C5(c6ccccc6)CC5)[nH]c(=O)c4C3)c2)c1 [17-138] | < 50 | < 10 |
| CC(C)(C)CC(=O)N1CCC(c2cccc(C3(c4nc5c(c(=O)[nH]4)CN(C(=O)[C@H](O)c4cccc(C(F)(F)F)c4)CCC5)CC3)c2)CC1 [31-12] | < 50 | < 10 |
| O=C([C@H](O)c1cccc(C(F)(F)F)c1)N1CCCc2nc(C3(c4cnc(-c5ccccc5)o4)CC3)[nH]c(=O)c2C1 [18-31] | < 50 | – |
| CC(C)c1cccc(C2(c3nc4c(c(=O)[nH]3)CN(C(=O)C(F)(F)c3cccc(C(F)(F)F)c3)CC4)CC2)c1 [20-13] | < 50 | – |
| O=C(Cc1cccc(-c2cccc(C(F)(F)F)c2)c1)N1CCCc2nc(C3(c4cccc(C5=CCCCC5)c4)CC3)[nH]c(=O)c2C1 [42-70] | < 50 | < 10 |
| O=C(C(O)c1cccc(Oc2cccc(C(F)(F)F)c2)c1)N1CCCc2nc(C3(c4ccccc4)CC3)[nH]c(=O)c2C1 (stereo not shown) [17-75] | < 50 | < 3 |
| O=C(C(O)c1cccc(-c2cccc(OC(F)(F)F)c2)c1)N1CCCc2nc(C3(c4cccc(F)c4)CC3)[nH]c(=O)c2C1 (stereo not shown) [17-15] | < 50 | < 10 |

| Compound | IC50 [1] [nM] | IC50 [2] [nM] |
| --- | --- | --- |
| CC(C)c1cc(C2(c3nc4c(c(=O)[nH]3)CN(C(=O)[C@H](O)c3cccc(C(F)(F)F)c3)CCC4)CC2)ccn1 [32-1] | < 50 | < 10 |
| O=C([C@H](O)c1cccc(C(F)(F)F)c1)N1CCc2nc(C3(c4cccc(F)c4)CC3)[nH]c(=O)c2C1 [3-73] | < 50 | – |
| O=C(C(O)c1cccc(-c2ccc(Cl)cc2)c1)N1CCc2nc(C3(c4cccc(F)c4)CC3)[nH]c(=O)c2C1 (stereo not shown) [14-24] | < 50 | – |
| Cn1ncc2c(-c3cccc(C4(c5nc6c(c(=O)[nH]5)CN(C(=O)[C@H](O)c5cccc(Cl)c5)CCC6)CC4)c3)cccc21 [40-10] | < 50 | < 3 |
| O=C([C@H](O)c1cccc(C(F)(F)F)c1)N1CCCc2nc(C3(c4cccc(-c5cc(F)cc(F)c5)c4)CC3)[nH]c(=O)c2C1 [42-61] | < 50 | < 10 |
| O=C(Cc1cccc(-c2ccc(C(F)(F)F)cc2)c1)N1CCCc2nc(C3(c4ccccc4)CC3)[nH]c(=O)c2C1 [17-133] | < 50 | < 10 |
| O=C(Cc1cccc(Oc2ccccc2)c1)N1CCCc2nc(C3(c4cccc(Cl)c4)CC3)[nH]c(=O)c2C1 [17-140] | < 50 | – |
| O=C([C@H](O)c1cccc(C(F)(F)F)c1)N1CCc2nc(C3(c4cccc(-c5cnsc5)c4)CC3)[nH]c(=O)c2C1 [37-3] | < 50 | < 3 |
| O=C([C@H](O)c1cccc(C(F)(F)F)c1)N1CCc2nc(C3(c4cc(C5CCCCC5)cs4)CC3)[nH]c(=O)c2C1 [15-4] | < 50 | < 3 |
| O=C([C@H](O)c1cccc(Cl)c1)N1CCc2nc(C3(c4cc(F)cc(F)c4)CC3)[nH]c(=O)c2C1 [3-58] | < 50 | – |
| O=C(Cc1cccc(-c2ccc(C(F)(F)F)cc2)c1)N1CCCc2nc(C3(c4cccc(Cl)c4)CC3)[nH]c(=O)c2C1 [17-128] | < 50 | < 10 |
| O=C([C@H](O)c1cccc(C(F)(F)F)c1)N1CCc2nc(C3(c4ccccc4)CC3)[nH]c(=O)c2C1 [3-71] | < 50 | – |
| O=C([C@H](O)c1cccc(C(F)(F)F)c1)N1CCCc2nc(C3(c4cc(CCC5(O)CCCCC5)cs4)CC3)[nH]c(=O)c2C1 [30-14] | < 50 | < 10 |
| O=C(Cc1cccc(C2CC2)c1)N1CCCc2nc(C3(c4cccc(Cl)c4)CC3)[nH]c(=O)c2C1 [17-116] | < 50 | < 10 |
| O=C(N1CCc2nc(C3(c4cccc(Cl)c4)CC3)[nH]c(=O)c2C1)C(F)(F)c1cccc(C(F)(F)F)c1 [20-10] | < 50 | – |
| O=C(C(O)c1cccc(F)c1F)N1CCc2nc(C3(c4cccc(F)c4)CC3)[nH]c(=O)c2C1 (stereo not shown) [3-28] | < 50 | – |
| O=C(C(O)c1cccc(C2CC2)c1)N1CCCc2nc(C3(c4cccc(F)c4)CC3)[nH]c(=O)c2C1 (stereo not shown) [17-53] | < 50 | – |
| O=C(Cc1cccc(-c2cccc(C(F)(F)F)c2)c1)N1CCCc2nc(C3(c4cncc(-c5ccccc5)c4)CC3)[nH]c(=O)c2C1 [19-14] | < 50 | < 10 |

Other lines, results leading:

| IC50 [1] [nM] | IC50 [2] [nM] | Compound |
| --- | --- | --- |
| < 50 | – | COCCOc1cccc(-c2cccc(C(O)C(=O)N3CCc4nc(C5(c6ccccc6)CC5)[nH]c(=O)c4C3)c2)c1 (stereo not shown) [44-29] |
| < 50 | < 3 | O=C([C@H](O)c1cccc(-c2cccc(OC(F)(F)F)c2)c1)N1CCCc2nc(C3(c4cccs4)CC3)[nH]c(=O)c2C1 [53-2] |
| < 50 | < 10 | CC(C)(C)c1cccc(-c2cccc([C@@H](O)C(=O)N3CCCc4nc(C5(c6cc(C7CCCCC7)cs6)CC5)[nH]c(=O)c4C3)c2)c1 [54-7] |
| < 50 | – | O=C(C(O)c1cccc(-c2csc3ccccc23)c1)N1CCc2nc(C3(c4ccccc4)CC3)[nH]c(=O)c2C1 (stereo not shown) [44-40] |
| < 50 | < 10 | CC(C)c1cncc(C2(c3nc4c(c(=O)[nH]3)CN(C(=O)[C@H](O)c3cccc(-c5ccc(C(F)(F)F)cc5)c3)CC4)CC2)c1 [47-2] |
| < 50 | < 10 | O=C(C(O)c1cccc(-c2cccc(OC(F)(F)F)c2)n1)N1CCc2nc(C3(c4ccccc4)CC3)[nH]c(=O)c2C1 (stereo not shown) [48-2] |
| < 50 | < 10 | O=C([C@H](O)c1cccc(-c2cc(Cl)cc(C(F)(F)F)c2)c1)N1CCCc2nc(C3(c4cccc(Cl)c4)CC3)[nH]c(=O)c2C1 [50-17] |
| < 50 | < 10 | O=C(N1CCCc2nc(C3(c4ccccc4)CC3)[nH]c(=O)c2C1)C(F)(F)c1cccc(-c2cccc(OC(F)(F)F)c2)c1 [58-5] |
| < 50 | < 10 | O=C([C@H](O)c1cccc(-c2cccc(C(F)(F)F)c2)c1)N1CCc2nc(C3(c4cccc(Cl)c4)CC3)[nH]c(=O)c2C1 [45-4] |
| < 50 | – | Cc1ccc(-c2cccc(C(O)C(=O)N3CCc4nc(C5(c6ccccc6)CC5)[nH]c(=O)c4C3)c2)cc1 (stereo not shown) [44-56] |
| < 50 | < 3 | O=C([C@H](O)c1cccc(-c2ccc(Cl)c(C(F)(F)F)c2)c1)N1CCc2nc(C3(c4ccccc4)CC3)[nH]c(=O)c2C1 [44-102] |
| < 50 | < 3 | O=C([C@H](O)c1cccc(-c2cccc(OC(F)(F)F)c2)c1)N1CCCc2nc(C3(c4ccccc4)CC3)[nH]c(=O)c2C1 [49-14] |
| < 50 | < 3 | N#Cc1cccc(-c2cccc([C@@H](O)C(=O)N3CCCc4nc(C5(c6cccc(Cl)c6)CC5)[nH]c(=O)c4C3)c2)c1 [50-25] |
| < 50 | < 3 | N#Cc1cc(Cl)cc(-c2cccc([C@@H](O)C(=O)N3CCc4nc(C5(c6ccccc6)CC5)[nH]c(=O)c4C3)c2)c1 [44-110] |
| < 50 | < 10 | CC(C)(C)c1cccc(-c2cccc(CC(=O)N3CCc4nc(C5(c6cccc(Cl)c6)CC5)[nH]c(=O)c4C3)c2)c1 [45-13] |
| < 50 | < 10 | O=C([C@H](O)c1cccc(-c2ccc(Cl)c(C(F)(F)F)c2)c1)N1CCc2nc(C3(c4cccc(Cl)c4)CC3)[nH]c(=O)c2C1 [45-3] |
| < 50 | < 10 | O=C([C@H](O)c1cccc(-c2ccc(Cl)c(C(F)(F)F)c2)c1)N1CCCc2nc(C3(c4ccccc4)CC3)[nH]c(=O)c2C1 [49-37] |
| < 50 | – | N#Cc1cccc(-c2cccc(C(O)C(=O)N3CCc4nc(C5(c6ccccc6)CC5)[nH]c(=O)c4C3)c2)c1 (stereo not shown) [44-32] |
| < 50 | – | O=C(C(O)c1cccc(-c2ccc(Cl)s2)c1)N1CCc2nc(C3(c4ccccc4)CC3)[nH]c(=O)c2C1 (stereo not shown) [44-30] |
| < 50 | < 10 | O=C([C@H](O)c1cccc(-c2cccc(OC(F)(F)F)c2)c1)N1CCCc2nc(C3(c4cc(C5CCCCC5)cs4)CC3)[nH]c(=O)c2C1 [54-11] |
| < 50 | < 3 | O=C([C@H](O)c1cccc(-c2cccc(Cl)c2)c1)N1CCCc2nc(C3(c4ccccc4)CC3)[nH]c(=O)c2C1 [49-15] |
